According to patent US9528090B2, “Differentiation of human embryonic stem cells” (Janssen Biotech, Inc., priority 2010, dated 2016):

Columns and labels:
[1] = tested on: human embryonic stem cells line H1; test: Definitive endoderm differentiation of H1 cells, single cell seeding (activin A/WNT-3a, MCDB-131): FACS for CXCR4 and CD9; format: cell-based; details: for % CXCR4 + CD9− / % CXCR4 − CD9+ / % CXCR4 − CD9−: single cell seeding, day 4
Experimental: (§1) Cells of the human embryonic stem cells line H1 (p40-p52) were seeded as single cells at a density of 100000 cells/cm^2 on MATRIGEL® (1:30 dilution) (BD Biosciences; Cat #356231)-coated dishes in MEF-CM (mouse embryonic fibroblast conditioned media) supplemented with 16 ng/ml of FGF2 (Catalog#100-18B, PeproTech, NJ) and 10 μM of Y27632 (Rock inhibitor, Catalogue#Y0503, Sigma, Mo.). 72 hrs post seeding, cultures were differentiated into definitive endoderm (DE) as follows: • a. MCDB-131 (Catalogue#10372-019, Invitrogen, CA) medium supplemented with 2% fatty acid-free BSA (Catalog#68700, Proliant, IA), 0.0025 g/ml sodium bicarbonate (Catalogue #S3187, Sigma, Mo.), 1× GlutaMax™ (Catalogue #35050-079, Invitrogen, Ca) and 100 ng/ml activin A (R&D Systems, MN) plus 20 ng/ml WNT-3a (Catalog#1324-WN-002, R&D Systems, MN) for one day, then • b. MCDB-131 medium supplemented with 2% BSA, sodium bicarbonate, Glutamax, and 100 ng/ml activin A for an additional three days.
(§2) In some of the cultures, the cells were treated with the following concentrations of insulin (Catalogue#19278, Sigma, Mo.): 0, 1, 10, 100, 1000, or 10000 ng/ml. At day 4, samples were collected for FACS and gene expression analysis using real-time PCR.
FIG. 5 depicts the CXCR4 and CD9 expression profile of the various treatments as measured by FACS analysis.

[2] = tested on: human embryonic stem cells line H1; test: Definitive endoderm differentiation of H1 cells, single cell seeding (activin A/WNT-3a): real-time PCR gene expression; format: cell-based; details: BSA medium
Experimental: as §1, §2

[3] = tested on: ES cells; details: 200 ng/ml of insulin added to 2% FBS, MEF-CM, activin A; cited from earlier work
[4] = super physiological insulin (1-10 μg/ml), BSA medium

insulin
% CXCR4 + CD9− ([1]; BSA + 1 ng/ml insulin): 96% | % CXCR4 − CD9+ ([1]; BSA + 1 ng/ml insulin): 1.5% | % CXCR4 − CD9− ([1]; BSA + 1 ng/ml insulin): 0.7% | % CXCR4 + CD9− ([1]; BSA + 10 ng/ml insulin): 95% | % CXCR4 − CD9+ ([1]; BSA + 10 ng/ml insulin): 1.4% | % CXCR4 − CD9− ([1]; BSA + 10 ng/ml insulin): 0.7% | % CXCR4 + CD9− ([1]; BSA + 100 ng/ml insulin): 90% | % CXCR4 − CD9+ ([1]; BSA + 100 ng/ml insulin): 4.1% | % CXCR4 − CD9− ([1]; BSA + 100 ng/ml insulin): 2% | % CXCR4 + CD9− ([1]; BSA + 1 μg/ml insulin): 90% | % CXCR4 − CD9+ ([1]; BSA + 1 μg/ml insulin): 3.6% | % CXCR4 − CD9− ([1]; BSA + 1 μg/ml insulin): 2.2% | % CXCR4 + CD9− ([1]; BSA + 10 μg/ml insulin): 84% | % CXCR4 − CD9+ ([1]; BSA + 10 μg/ml insulin): 6.6% | % CXCR4 − CD9− ([1]; BSA + 10 μg/ml insulin): 4.7% | CXCR4−CD9+ fraction [1, 4]: increase in expression | percentage of CXCR4+CD9− cells [1, 4]: decrease in the percentage | expression of markers associated with definitive endoderm (FOXA2, SOX17, CER1, CXCR4) ([2]; 1-100 ng/ml insulin, day 4): did not significantly affect | expression of NANOG ([2]; 1-10 μg/ml of insulin): did increase expression | decrease of the expression of SOX17 [3]: approximately 70%
